Measurements as given in patent publication US20240099996A1, “METHODS FOR TREATING CANCER” (Radius Pharmaceuticals, Inc., priority 2015, published 2024).
Structures can show the parent of a compound that is named as a salt.

Assay: Phase 1 dose escalation study in healthy post-menopausal women, treatment related AEs
Assay type: in vivo
Method: The subjects were 40-75 years old with BMI of 18.0-30 kg/m^2. Subjects having evidence of clinically relevant pathology, increased risk of stroke or of history venous thromboembolic events, or use of concomitant medication less than 14 days prior to admission to clinical research center (paracetamol allowed up to 3 days prior) were excluded. Dosing
The subjects were treated with placebo or at least one dose p.o., q.d. after a light breakfast for 7 days at dose levels of 200 mg, 500 mg, 750 mg and 1000 mg, respectively.

CCNCCc1ccc(CN(CC)c2cc(OC)ccc2[C@@H]2CCc3cc(O)ccc3C2)cc1 [RAD1901, (6R)-6-(2-(N-(4-(2-(ethylamino)ethyl)benzyl)-N-ethylamino)-4-methoxyphenyl)-5,6,7,8-tetrahydronaphthalen-2-ol dihydrochloride]
Nausea Gr2 (750 mg, N = 8): 1 (13) n(%) | Nausea Gr3 (750 mg, N = 8): 0 n(%) | Odynophagia Gr1 (750 mg, N = 8): 0 n(%) | Odynophagia Gr2 (750 mg, N = 8): 0 n(%) | Odynophagia Gr3 (750 mg, N = 8): 0 n(%) | Oesophageal pain Gr1 (750 mg, N = 8): 1 (13) n(%) | Oesophageal pain Gr2 (750 mg, N = 8): 0 n(%) | Oesophageal pain Gr3 (750 mg, N = 8): 0 n(%) | Salivary hypersecretion Gr1 (750 mg, N = 8): 2 (25) n(%) | Salivary hypersecretion Gr2 (750 mg, N = 8): 0 n(%) | Salivary hypersecretion Gr3 (750 mg, N = 8): 0 n(%) | Sensation of a foreign body Gr1 (750 mg, N = 8): 0 n(%) | Sensation of a foreign body Gr2 (750 mg, N = 8): 0 n(%) | Sensation of a foreign body Gr3 (750 mg, N = 8): 0 n(%) | Vomiting Gr1 (750 mg, N = 8): 0 n(%) | Vomiting Gr2 (750 mg, N = 8): 2 (25) n(%) | Vomiting Gr3 (750 mg, N = 8): 0 n(%) | Abdominal discomfort Gr1 (1000 mg, N = 7): 0 n(%) | Abdominal discomfort Gr2 (1000 mg, N = 7): 0 n(%) | Abdominal discomfort Gr3 (1000 mg, N = 7): 0 n(%) | Abdominal distension Gr1 (1000 mg, N = 7): 2 (29) n(%) | Abdominal distension Gr2 (1000 mg, N = 7): 0 n(%) | Abdominal distension Gr3 (1000 mg, N = 7): 0 n(%) | Abdominal pain Gr1 (1000 mg, N = 7): 1 (14) n(%) | Abdominal pain Gr2 (1000 mg, N = 7): 1 (14) n(%) | Abdominal pain Gr3 (1000 mg, N = 7): 0 n(%) | Diarrhoea Gr1 (1000 mg, N = 7): 3 (43) n(%) | Diarrhoea Gr2 (1000 mg, N = 7): 1 (14) n(%) | Diarrhoea Gr3 (1000 mg, N = 7): 0 n(%) | Dizziness Gr1 (1000 mg, N = 7): 1 (14) n(%) | Dizziness Gr2 (1000 mg, N = 7): 0 n(%) | Dizziness Gr3 (1000 mg, N = 7): 0 n(%) | Dyspepsia Gr1 (1000 mg, N = 7): 1 (14) n(%) | Dyspepsia Gr2 (1000 mg, N = 7): 1 (14) n(%) | Dyspepsia Gr3 (1000 mg, N = 7): 0 n(%) | Dysphagia Gr1 (1000 mg, N = 7): 0 n(%) | Dysphagia Gr2 (1000 mg, N = 7): 0 n(%) | Dysphagia Gr3 (1000 mg, N = 7): 0 n(%) | Flatulance Gr1 (1000 mg, N = 7): 0 n(%) | Flatulance Gr2 (1000 mg, N = 7): 0 n(%) | Flatulance Gr3 (1000 mg, N = 7): 0 n(%) | Headache Gr1 (1000 mg, N = 7): 2 (29) n(%) | Headache Gr2 (1000 mg, N = 7): 0 n(%) | Headache Gr3 (1000 mg, N = 7): 0 n(%) | Hiccups Gr1 (1000 mg, N = 7): 2 (29) n(%) | Hiccups Gr2 (1000 mg, N = 7): 0 n(%) | Hiccups Gr3 (1000 mg, N = 7): 0 n(%) | Hot flush Gr1 (1000 mg, N = 7): 1 (14) n(%) | Hot flush Gr2 (1000 mg, N = 7): 0 n(%) | Hot flush Gr3 (1000 mg, N = 7): 0 n(%) | Myalgia Gr1 (1000 mg, N = 7): 0 n(%) | Myalgia Gr2 (1000 mg, N = 7): 0 n(%) | Myalgia Gr3 (1000 mg, N = 7): 0 n(%) | Nausea Gr1 (1000 mg, N = 7): 4 (57) n(%) | Nausea Gr2 (1000 mg, N = 7): 2 (29) n(%) | Nausea Gr3 (1000 mg, N = 7): 0 n(%) | Odynophagia Gr1 (1000 mg, N = 7): 1 (14) n(%) | Odynophagia Gr2 (1000 mg, N = 7): 1 (14) n(%) | Odynophagia Gr3 (1000 mg, N = 7): 0 n(%) | Oesophageal pain Gr1 (1000 mg, N = 7): 1 (14) n(%) | Oesophageal pain Gr2 (1000 mg, N = 7): 1 (14) n(%) | Oesophageal pain Gr3 (1000 mg, N = 7): 1 (14) n(%) | Salivary hypersecretion Gr1 (1000 mg, N = 7): 2 (29) n(%) | Salivary hypersecretion Gr2 (1000 mg, N = 7): 0 n(%) | Salivary hypersecretion Gr3 (1000 mg, N = 7): 0 n(%) | Sensation of a foreign body Gr1 (1000 mg, N = 7): 4 (57) n(%) | Sensation of a foreign body Gr2 (1000 mg, N = 7): 0 n(%) | Sensation of a foreign body Gr3 (1000 mg, N = 7): 0 n(%) | Vomiting Gr1 (1000 mg, N = 7): 0 n(%) | Vomiting Gr2 (1000 mg, N = 7): 3 (43) n(%) | Vomiting Gr3 (1000 mg, N = 7): 0 n(%) | dose limiting toxicities (DLT) (200-1000 mg p.o., q.d., 7 days): No dose limiting toxicites (DLT) were observed | maximum tolerated dose (MTD) (200-1000 mg p.o., q.d., 7 days): not established | Abdominal discomfort Gr1 (Total Active, N = 44): 4 n(%) | Abdominal discomfort Gr2 (Total Active, N = 44): 1 (2) n(%) | Abdominal discomfort Gr3 (Total Active, N = 44): 0 n(%) | Abdominal distension Gr1 (Total Active, N = 44): 5 n(%) | Abdominal distension Gr2 (Total Active, N = 44): 1 (2) n(%) | Abdominal distension Gr3 (Total Active, N = 44): 0 n(%) | Abdominal pain Gr1 (Total Active, N = 44): 7 n(%) | Abdominal pain Gr2 (Total Active, N = 44): 3 (7) n(%) | Abdominal pain Gr3 (Total Active, N = 44): 0 n(%) | Diarrhoea Gr1 (Total Active, N = 44): 6 n(%) | Diarrhoea Gr2 (Total Active, N = 44): 1 (2) n(%) | Diarrhoea Gr3 (Total Active, N = 44): 0 n(%) | Dizziness Gr1 (Total Active, N = 44): 5 n(%) | Dizziness Gr2 (Total Active, N = 44): 0 n(%) | Dizziness Gr3 (Total Active, N = 44): 0 n(%) | Dyspepsia Gr1 (Total Active, N = 44): 13 n(%) | Dyspepsia Gr2 (Total Active, N = 44): 3 (7) n(%) | Dyspepsia Gr3 (Total Active, N = 44): 0 n(%) | Dysphagia Gr1 (Total Active, N = 44): 4 n(%) | Dysphagia Gr2 (Total Active, N = 44): 3 (7) n(%) | Dysphagia Gr3 (Total Active, N = 44): 0 n(%) | Flatulance Gr1 (Total Active, N = 44): 5 n(%) | Flatulance Gr2 (Total Active, N = 44): 0 n(%) | Flatulance Gr3 (Total Active, N = 44): 0 n(%) | Headache Gr1 (Total Active, N = 44): 9 n(%) | Headache Gr2 (Total Active, N = 44): 1 (2) n(%) | Headache Gr3 (Total Active, N = 44): 0 n(%) | Hiccups Gr1 (Total Active, N = 44): 9 n(%) | Hiccups Gr2 (Total Active, N = 44): 0 n(%) | Hiccups Gr3 (Total Active, N = 44): 0 n(%) | Hot flush Gr1 (Total Active, N = 44): 11 n(%) | Hot flush Gr2 (Total Active, N = 44): 0 n(%) | Hot flush Gr3 (Total Active, N = 44): 0 n(%) | Myalgia Gr1 (Total Active, N = 44): 3 n(%) | Myalgia Gr2 (Total Active, N = 44): 2 (5) n(%) | Myalgia Gr3 (Total Active, N = 44): 0 n(%) | Nausea Gr1 (Total Active, N = 44): 14 n(%) | Nausea Gr2 (Total Active, N = 44): 5 (11) n(%) | Nausea Gr3 (Total Active, N = 44): 0 n(%) | Odynophagia Gr1 (Total Active, N = 44): 4 n(%) | Odynophagia Gr2 (Total Active, N = 44): 2 (5) n(%) | Odynophagia Gr3 (Total Active, N = 44): 0 n(%) | Oesophageal pain Gr1 (Total Active, N = 44): 3 n(%) | Oesophageal pain Gr2 (Total Active, N = 44): 6 (14) n(%) | Oesophageal pain Gr3 (Total Active, N = 44): 1 (2) n(%) | Salivary hypersecretion Gr1 (Total Active, N = 44): 8 n(%) | Salivary hypersecretion Gr2 (Total Active, N = 44): 0 n(%) | Salivary hypersecretion Gr3 (Total Active, N = 44): 0 n(%) | Sensation of a foreign body Gr1 (Total Active, N = 44): 7 n(%) | Sensation of a foreign body Gr2 (Total Active, N = 44): 0 n(%) | Sensation of a foreign body Gr3 (Total Active, N = 44): 0 n(%) | Vomiting Gr1 (Total Active, N = 44): 3 n(%) | Vomiting Gr2 (Total Active, N = 44): 10 (23) n(%) | Vomiting Gr3 (Total Active, N = 44): 1 (2) n(%) | Abdominal discomfort All (Total TEAE, N = 44): 5 n(%) | Abdominal distension All (Total TEAE, N = 44): 6 n(%) | Abdominal pain All (Total TEAE, N = 44): 10 n(%) | Diarrhoea All (Total TEAE, N = 44): 7 n(%) | Dizziness All (Total TEAE, N = 44): 5 n(%) | Dyspepsia All (Total TEAE, N = 44): 16 n(%) | Dysphagia All (Total TEAE, N = 44): 7 n(%) | Flatulance All (Total TEAE, N = 44): 5 n(%) | Headache All (Total TEAE, N = 44): 10 n(%) | Hiccups All (Total TEAE, N = 44): 9 n(%) | Hot flush All (Total TEAE, N = 44): 11 n(%) | Myalgia All (Total TEAE, N = 44): 5 n(%) | Nausea All (Total TEAE, N = 44): 19 n(%) | Odynophagia All (Total TEAE, N = 44): 6 n(%) | Oesophageal pain All (Total TEAE, N = 44): 10 n(%) | Salivary hypersecretion All (Total TEAE, N = 44): 8 n(%) | Sensation of a foreign body All (Total TEAE, N = 44): 7 n(%) | Vomiting All (Total TEAE, N = 44): 14 n(%)
